{"source": "paper PMC5896570", "about": "(SLAS discovery : advancing life sciences R & D, 2016)", "key": {"full-length human A2AR [1]": {"biological_target": "T1, full-length human A2AR (Homo sapiens, UniProt P29274)", "T1 sequence (P29274 whole entry)": "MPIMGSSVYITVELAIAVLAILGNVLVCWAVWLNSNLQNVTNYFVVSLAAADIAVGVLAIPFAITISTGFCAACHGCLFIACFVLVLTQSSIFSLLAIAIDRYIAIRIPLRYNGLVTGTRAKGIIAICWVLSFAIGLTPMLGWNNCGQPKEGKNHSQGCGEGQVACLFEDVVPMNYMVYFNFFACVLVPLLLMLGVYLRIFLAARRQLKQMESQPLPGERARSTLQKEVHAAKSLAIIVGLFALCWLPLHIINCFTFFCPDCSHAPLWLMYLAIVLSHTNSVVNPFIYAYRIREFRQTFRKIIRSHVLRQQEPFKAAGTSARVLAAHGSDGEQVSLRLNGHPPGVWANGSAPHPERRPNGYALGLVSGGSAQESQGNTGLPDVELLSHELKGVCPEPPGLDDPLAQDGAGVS", "type": "binding", "details": "for receptor-ligand complexes formed at equilibrium: saturation"}, "full-length human A2AR [2]": {"biological_target": "T1, full-length human A2AR", "type": "binding", "details": "mean ± SEM, n=16; for Kd: read-out: Kinetic KD"}, "[3]": {"details": "analytical solution, fixed α 5.6%"}, "[4]": {"details": "numerical solution, fixed KD 22 nM"}}, "note": "Values joined by “and” are separate entries in the source; they are usually repeats but may differ in a detail not shown here. Identical values can stand only once. Like-named read-outs stand apart in the source and are kept apart here.", "data": [{"molecule": "CCNC(=O)[C@H]1O[C@@H](n2cnc3c(N)nc(NCCc4ccc(CCC(=O)NCCNC(=S)Nc5ccc6c(c5)C(=O)OC6(c5ccc(O)cc5)c5ccc(O)cc5)cc4)nc32)[C@H](O)[C@@H]1O", "note": "[FITC-APEC, 2-[2-[4-[2-[2-[1,3-Dihydro-1,1-bis (4-hydroxyphenyl)-3-oxo-5-isobenzofuranthioureidyl]ethylaminocarbonyl]ethyl]phenyl]ethylamino]-5′--ethylcarboxamidoadenosine]", "values": [{"measurement": "Bmax", "setting": "full-length human A2AR [1]; equilibrium, Scatchard analysis, ± SEM, n=5", "value": "~ 5.6 % of RT and 5.6 ± 0.4 % of RT"}, {"measurement": "receptor-ligand complexes formed at equilibrium", "setting": "full-length human A2AR [1]; receptor concentration 160 nM", "value": 9, "unit": "nM"}, {"measurement": "receptor-ligand complexes formed at equilibrium", "setting": "full-length human A2AR [1]; receptor concentration 480 nM", "value": 25, "unit": "nM"}, {"measurement": "Residence time", "setting": "full-length human A2AR [2]; [3]", "value": "22 ± 1.5", "unit": "min"}, {"measurement": "koff", "setting": "full-length human A2AR [2]; [3]", "value": "7.7 ± 0.5 x10^−4 s^−1"}, {"measurement": "kon", "setting": "full-length human A2AR [2]; [3]", "value": "1.5 ± 0.2 x10^4 (M s)^−1"}, {"measurement": "Residence time", "setting": "full-length human A2AR [2]; [4]", "value": "47 ± 3.8", "unit": "min"}, {"measurement": "koff", "setting": "full-length human A2AR [2]; [4]", "value": "3.6 ± 0.3 x10^−4 s^−1"}, {"measurement": "α (Bmax/RT)", "setting": "full-length human A2AR [2]; [4]", "value": "6.8 ± 1.1", "unit": "%"}, {"measurement": "Kd", "setting": "full-length human A2AR [2]; [3]", "value": "73 ± 15", "unit": "nM"}, {"measurement": "Kd", "setting": "full-length human A2AR [2]; [4]", "value": "22 ± 2.3", "unit": "nM"}]}]}
